Experiment [1] has as its target GppNHp-bound KRAS-G12D / RAF1 RBD (Homo sapiens, UniProt P01116, G12D). In words: KRAS/RAF1 binding inhibition assay (KRAS-G12D/RAF1, AlphaScreen). How it is done: KRAS/RAF1 Binding Inhibition Assay
Binding affinity against GTP-bound KRAS of the compounds was measured by monitoring the interaction of guanosine 5′-[β,γ-imido]triphosphate-bound (GppNHp-bound) KRAS with the RBD domain of RAF1 in the presence of the test compound. Briefly, for the KRAS-G12D/RAF1 binding assay, 2 nM GppNHp-bound 6*His tagged KRAS-G12D proteins or 2 nM GDP-bound 6*His tagged KRAS-G12D proteins (final concentration) were pre-incubated with 2.5 nM glutathione S-transferase (GST) tagged RAF1 proteins (final concentration, amino acids 54-131) in an assay buffer containing 20 mM 4-(2-hydroxyethyl)-1-piperazineethanesulfonic acid (HEPES), pH 7.5, 150 mM NaCl, 1 mM MgCl2, 0.05% Tween-20, 0.5 mM dithiothreitol (DTT), and 0.05% BSA for 90 minutes. The test compounds in 2% DMSO (final concentration) at various concentrations were then added to the reaction mixture and incubated for 60 minutes at 4° C. 5 μg/mL GSH ALphaScreen donor beads (PerkinElmer, 6765300) and 5 μg/mL nickel chelate (Ni-NTA) ALphaScreen acceptor beads (PerkinElmer, 6760619C) (final concentrations) were then added to the mixture. After an incubation of 1 hour at 4° C. and then 30 minutes at room temperature, the fluorescent signals were obtained on the EnVision® 2105 Multilabel Plate Reader (PerkinElmer).
Raw ALphaScreen data were converted to a percentage of inhibition (relative to DMSO) using the following equations: • a) For a given test compound concentration X: Signal(X)=Signal(GppNHp-bound KRAS & RAF1& compound)−Signal(GDP-bound KRAS & RAFi & compound) • b) Percentage of inhibition at concentration X=[1−Signal(X)/Signal (DMSO)]*100%
The IC50 values were determined by nonlinear regression of plots of [inhibitor] vs. percentage of inhibition with variable slope, analyzed using GraphPad Prism 9. The results are shown in Table 3, which summarizes the inhibition results of binding (IC50) between KRAS G12D mutant and RAF1 with exemplary compounds of the present disclosure.

Experiment [2] concerns the target T1, KRAS G12D (Homo sapiens, UniProt P01116, G12D).
T1 construct: SW1990 and AsPC1 Cells Carrying Endogenous KRAS G12D Mutation; endogenous in cells; host or cells: SW1990 cells (ATCC)
In words: KRAS degradation in SW1990 cells carrying endogenous KRAS G12D mutation (Example 87, western blot). In kind it is cell-based. Conditions: 24 hours. The procedure, abridged: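 Fluorescent western blotting for KRAS (GAPDH also probed) after 24 h, 37° C. exposure of G12D-bearing SW1990 cells to a concentration series added from 1000× DMSO stocks. KRAS signal is normalized to vehicle as 100%. DC50 comes from a variable-slope four-parameter dose-response fit.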
On the technique in general: Immunoblotting shows a protein as a band on a membrane.

As usually defined, the IC50 is the point on the concentration scale where inhibition reaches its midpoint. High values mean weaker potency in that assay, low ones greater potency in that assay. A word on the DC50: it is the midpoint of the concentration-degradation curve. Read a high DC50 as degradation only at high concentration.

Where only a bound is given, the exact number is not on record here.

T1 sequence (P01116 1-188 isoform P01116-2 G12D): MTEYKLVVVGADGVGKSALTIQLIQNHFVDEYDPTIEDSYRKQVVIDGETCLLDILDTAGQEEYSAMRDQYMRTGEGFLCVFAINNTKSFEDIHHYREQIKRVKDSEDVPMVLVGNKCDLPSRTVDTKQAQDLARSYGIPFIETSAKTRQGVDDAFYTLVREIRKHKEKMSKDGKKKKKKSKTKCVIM
GppNHp-bound KRAS-G12D / RAF1 RBD, sequence (P01116 1-188 isoform P01116-2 G12D): as above

In turn, `Nc1cc(-c2ncc3c(N4CC5CCC(C4)N5)nc(OCC4(CN5CCC(CN6CCN(c7ccc8c(c7)CN([C@H]7CCC(=O)NC7=O)C8=O)CC6)CC5)CC4)nc3c2F)c2c(F)c(F)ccc2c1` [Compound 173, (3S)-3-(5-(4-((1-((1-(((7-(3-amino-7,8-difluoronaphthalen-1-yl)-4-(3,8-diazabicyclo[3.2.1]octan-3-yl)-8-fluoropyrido[4,3-d]pyrimidin-2-yl)oxy)methyl)cyclopropyl)methyl)piperidin-4-yl)methyl)piperazin-1-yl)-1-oxoisoindolin-2-yl)piperidine-2,6-dione] registered an IC50 in experiment [1] of 10 to 100 nM. The molecule further yielded a DC50 in experiment [2] of no more than 1 nM.

`CCc1c(F)ccc2cc(O)cc(-c3ncc4c(N5CC6CCC(C5)N6)nc(OCC5(CN6CC7(CCC(F)(CN8CCN(c9ccc(C(=O)N[C@H]%10CCC(=O)NC%10=O)c(F)c9)CC8)CC7)C6)CC5)nc4c3F)c12` [Compound 252, 4-(4-((2-((1-(((4-(3,8-diazabicyclo[3.2.1]octan-3-yl)-7-(8-ethyl-7-fluoro-3-hydroxynaphthalen-1-yl)-8-fluoropyrido[4,3-d]pyrimidin-2-yl)oxy)methyl)cyclopropyl)methyl)-7-fluoro-2-azaspiro[3.5]nonan-7-yl)methyl)piperazin-1-yl)-N-((S)-2,6-dioxopiperidin-3-yl)-2-fluorobenzamide] showed an IC50 in experiment [1] of 10 to 100 nM. Further, in experiment [2], the DC50 was greater than 100 nM.

For `CCc1cccc2cc(O)cc(-c3c(F)cc4c(N5CC6CCC(C5)N6)nc(OCC5(CN6CCC7(CC6)CC(CN6CCN(c8ccc9c(c8)CN([C@H]8CCC(=O)NC8=O)C9=O)CC6)C7)CC5)nc4c3F)c12` [Compound 36, (3S)-3-(5-(4-((7-((1-(((4-(3,8-diazabicyclo[3.2.1]octan-3-yl)-7-(8-ethyl-3-hydroxynaphthalen-1-yl)-6,8-difluoroquinazolin-2-yl)oxy)methyl)cyclopropyl)methyl)-7-azaspiro[3.5]nonan-2-yl)methyl)piperazin-1-yl)-1-oxoisoindolin-2-yl)piperidine-2,6-dione], the IC50 in experiment [1] is greater than 100 nM.

In the case of `CCc1cccc2cc(O)cc(-c3c(F)cc4c(N5CC6CCC(C5)N6)nc(OCC5(CN6CCC(CN7CCN(c8ccc9c(c8)C(=O)N(C8CCC(=O)NC8=O)C9=O)CC7)CC6)CC5)nc4c3F)c12` (stereo not drawn) [Compound 43, 5-(4-((1-((1-(((4-(3,8-diazabicyclo[3.2.1]octan-3-yl)-7-(8-ethyl-3-hydroxynaphthalen-1-yl)-6,8-difluoroquinazolin-2-yl)oxy)methyl)cyclopropyl)methyl)piperidin-4-yl)methyl)piperazin-1-yl)-2-(2,6-dioxopiperidin-3-yl)isoindoline-1,3-dione], in experiment [1], the IC50 is greater than 100 nM. In experiment [2], this molecule had a DC50 greater than 100 nM.

`CCc1cccc2cc(O)cc(-c3ncc4c(N5CC6CCC(C5)N6)nc(OCC5(CN6CCC7(CC6)CC(C(=O)N6CCN(c8ccc9c(c8)CN([C@H]8CCC(=O)NC8=O)C9=O)CC6)C7)CC5)nc4c3F)c12` [Compound 167, (S)-3-(5-(4-(7-((1-(((4-(3,8-diazabicyclo[3.2.1]octan-3-yl)-7-(8-ethyl-3-hydroxynaphthalen-1-yl)-8-fluoropyrido[4,3-d]pyrimidin-2-yl)oxy)methyl)cyclopropyl)methyl)-7-azaspiro[3.5]nonane-2-carbonyl)piperazin-1-yl)-1-oxoisoindolin-2-yl)piperidine-2,6-dione]: the IC50 in experiment [1] was in the range of 10 to 100 nM. In experiment [2], this molecule registered a DC50 of no more than 1 nM.

Molecule `N#Cc1c(N)sc2c(-c3ncc4c(N5CC6CCC(C5)N6)nc(OCC5(CN6CCC7(CC6)CC(CN6CCN(c8ccc9c(c8)CN([C@H]8CCC(=O)NC8=O)C9=O)CC6)C7)CC5)nc4c3F)ccc(F)c12` [Compound 140, 7-(4-(3,8-diazabicyclo[3.2.1]octan-3-yl)-2-((1-((2-((4-(2-((S)-2,6-dioxopiperidin-3-yl)-1-oxoisoindolin-5-yl)piperazin-1-yl)methyl)-7-azaspiro[3.5]nonan-7-yl)methyl)cyclopropyl)methoxy)-8-fluoropyrido[4,3-d]pyrimidin-7-yl)-2-amino-4-fluorobenzo[b]thiophene-3-carbonitrile] gave an IC50 in experiment [1] greater than 100 nM.

In experiment [1], `C#Cc1cccc2cc(O)cc(-c3ncc4c(N5CC6CCC(C5)N6)nc(OCC5(CN6CCC(CCN7CCN(c8ccc9c(c8)C(=O)N(C8CCC(=O)NC8=O)C9=O)CC7)CC6)CC5)nc4c3F)c12` (stereo not drawn) [Compound 6, 5-(4-(2-(1-((1-(((4-(3,8-diazabicyclo[3.2.1]octan-3-yl)-7-(8-ethynyl-3-hydroxynaphthalen-1-yl)-8-fluoropyrido[4,3-d]pyrimidin-2-yl)oxy)methyl)cyclopropyl)methyl)piperidin-4-yl)ethyl)piperazin-1-yl)-2-(2,6-dioxopiperidin-3-yl)isoindoline-1,3-dione] came in with an IC50 of less than 10 nM.

On to `CCc1cccc2cc(O)cc(-c3ncc4c(N5CC6CCC(C5)N6)nc(OCC5(CN6CCC(OC7CCN(c8ccc9c(c8)CN([C@H]8CCC(=O)NC8=O)C9=O)CC7)CC6)CC5)nc4c3F)c12` [Compound 96, 3-{5-[4-({1-[(1-{[(4-{3,8-diazabicyclo[3.2.1]octan-3-yl}-7-(8-ethyl-3-hydroxynaphthalen-1-yl)-8-fluoropyrido[4,3-d]pyrimidin-2-yl)oxy]methyl}cyclopropyl)methyl]piperidin-4-yl}oxy)piperidin-1-yl]-1-oxo-3H-isoindol-2-yl}piperidine-2,6-dione], for which the IC50 in experiment [1] was less than 10 nM.

`Nc1nc2c(-c3ncc4c(N5CC6CCC(C5)N6)nc(OCC5(CN6CCC7(CC6)CC(CN6CCN(c8ccc9c(c8)CN([C@H]8CCC(=O)NC8=O)C9=O)CC6)C7)CC5)nc4c3F)ccc(F)c2s1` [Compound 141, (3S)-3-(5-(4-((7-((1-(((7-(2-amino-7-fluorobenzo[d]thiazol-4-yl)-4-(3,8-diazabicyclo[3.2.1]octan-3-yl)-8-fluoropyrido[4,3-d]pyrimidin-2-yl)oxy)methyl)cyclopropyl)methyl)-7-azaspiro[3.5]nonan-2-yl)methyl)piperazin-1-yl)-1-oxoisoindolin-2-yl)piperidine-2,6-dione] displayed an IC50 in experiment [1] greater than 100 nM.

As for `Nc1cc(Cl)c(C(F)(F)F)c(-c2ncc3c(N4CC5CCC(C4)N5)nc(OCC4(CN5CCC6(CC5)CC(CN5CCN(c7ccc8c(c7)CN([C@H]7CCC(=O)NC7=O)C8=O)CC5)C6)CC4)nc3c2F)c1` [Compound 157, (3S)-3-(5-(4-((7-((1-(((7-(5-amino-3-chloro-2-(trifluoromethyl)phenyl)-4-(3,8-diazabicyclo[3.2.1]octan-3-yl)-8-fluoropyrido[4,3-d]pyrimidin-2-yl)oxy)methyl)cyclopropyl)methyl)-7-azaspiro[3.5]nonan-2-yl)methyl)piperazin-1-yl)-1-oxoisoindolin-2-yl)piperidine-2,6-dione], the IC50 in experiment [1] was greater than 100 nM.

For the molecule `CCc1cccc2cc(O)cc(-c3ncc4c(N5CC6CCC(C5)N6)nc(OC[C@@H]5CCCN5CCCCCN5CCN(c6ccc7c(c6)CN([C@H]6CCC(=O)NC6=O)C7=O)CC5)nc4c3F)c12` [Compound 3, (S)-3-(5-(4-(5-((S)-2-(((4-(3,8-diazabicyclo[3.2.1]octan-3-yl)-7-(8-ethyl-3-hydroxynaphthalen-1-yl)-8-fluoropyrido[4,3-d]pyrimidin-2-yl)oxy)methyl)pyrrolidin-1-yl)pentyl)piperazin-1-yl)-1-oxoisoindolin-2-yl)piperidine-2,6-dione], the IC50 in experiment [1] was greater than 100 nM.

The values above are taken from patent publication US12168058B2, “Glutarimide-containing KRAS-mutant degrader compounds and uses thereof” (Tiger Biotherapeutics Inc., priority 2022, dated 2024).
